Target: T1, human α1A adrenergic receptor (Homo sapiens, UniProt P35348)
T1 construct: host or cells: GeneBLAzer ADRA1A-NFAT-bla CHO-K1 cells
T1 sequence (P35348 1-466): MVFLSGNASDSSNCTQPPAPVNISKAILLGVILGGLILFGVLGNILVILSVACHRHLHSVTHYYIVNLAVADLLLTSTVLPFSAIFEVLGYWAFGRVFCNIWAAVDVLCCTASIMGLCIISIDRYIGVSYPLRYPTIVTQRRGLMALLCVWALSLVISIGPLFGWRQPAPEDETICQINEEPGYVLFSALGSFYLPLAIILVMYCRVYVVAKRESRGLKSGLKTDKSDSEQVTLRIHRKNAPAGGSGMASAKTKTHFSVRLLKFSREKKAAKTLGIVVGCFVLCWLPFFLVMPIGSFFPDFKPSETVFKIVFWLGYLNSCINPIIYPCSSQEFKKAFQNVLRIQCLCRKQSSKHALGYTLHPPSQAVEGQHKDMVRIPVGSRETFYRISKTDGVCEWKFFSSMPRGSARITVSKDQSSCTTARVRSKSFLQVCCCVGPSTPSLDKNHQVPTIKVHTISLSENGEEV
Experiment: Ca2+ mobilization assay in human α1A adrenergic receptor-expressing cells
Type: cell-based
Set-up: Emax: dose or concentration left out as unconfirmed
Conditions: for Emax at 10 µM: % activation at 10 μmol/L test compound, 100 μmol/L norepinephrine = 100%, well without test compound = 0%; for EC50: CHO-K1 cells expressing human α1A adrenergic receptor, Fluo-4 fluorescence, concentration giving 50% response of Emax, 4-parameter logistic regression
Description: CHO-K1 cells that highly express a human α1A adrenergic receptor (GeneBLAzer™ ADRA1A-NFAT-bla CHO-K1 Cells) were purchased from Thermo Fisher Scientific, Inc., and cultured according to the instructions.
The cultured human α1A adrenergic receptor-expressing cells were washed with D-PBS, then replaced with a loading buffer (2 μmol/L Fluo-4/AM, 1× PowerLoad, 2.5 mmol/L Probenecid-containing DMEM (high-glucose)) and incubated at 37° C. for 60 minutes in a 5% CO2 incubator. The cells were detached using 0.05% trypsin-EDTA solution, and suspended in an assay buffer ([…], 0.054 mol/L KCl, 1.8 mmol/L CaCl2), 1 mmol/L MgSO4, 0.11 mol/L glucose, 0.01 mol/L NaH2PO4·2H2O, […], pH 7.3) to be 500,000 cells/mL.
Test compounds were dissolved in dimethylsulfoxide, and diluted with an assay buffer containing 0.3% BSA. The final concentrations of the test compounds were set to fall within the range of 0.1 nmol/L to 10 μmol/L. As a reference compound, norepinephrine was set to have a final concentration within the range of 0.01 nmol/L to 100 μmol/L.
On a 384-well clear bottom black plate coated with poly-D-lysine (Corning Inc.), the above-described cell-suspended solution was dispersed in 40 μL each (20,000 cells/well) and allowed to stand for 10 minutes. The plate was transferred to a fluorescent imaging plate reader (FDSS7000, Hamamatsu Photonics K.K.), and measurements were started. After 1 minute from the start of the measurements, 20 μL of the test compound solutions or norepinephrine solution (total amount: 60 μL/well) was added to each well of the plate (final concentration: 0.1% BSA, 0.1% dimethylsulfoxide), and the temporal change in fluorescence intensity of Fluo-4 was further measured for 5 minutes (Ex 480 nm/Em 540 nm).
The normalized values (% activation) were used for subsequent analyses.
Emax values and EC50 values were calculated by creating a concentration-response curve of the test compounds using a 4-parameter logistic regression with XLFit, Emax value being defined as % activation of test compound at the concentration of 10 μmol/L, and EC50 value being defined as the concentration in which 50% response of the Emax values is shown.

Cc1cccnc1-c1cscc1NCc1c[nH]cn1 [Example 16, N-((1H-imidazol-4-yl)methyl)-4-(3-methylpyridin-2-yl)thiophen-3-amine]
Emax at 10 µM: 88%
EC50: 9.6 nM

COc1cccnc1-c1cscc1NCc1c[nH]cn1 [Example 17, N-((1H-imidazol-4-yl)methyl)-4-(3-methoxypyridin-2-yl)thiophen-3-amine]
Emax at 10 µM: 90%
EC50: 2 nM

Cc1ncsc1-c1cscc1NCc1c[nH]cn1 [Example 18, N-((1H-imidazol-4-yl)methyl)-4-(4-methylthiazol-5-yl)thiophen-3-amine]
Emax at 10 µM: 88%
EC50: 5.3 nM

Cc1ncncc1-c1ccccc1NCc1c[nH]cn1 [Example 19, N-((1H-imidazol-4-yl)methyl)-2-(4-methylpyrimidin-5-yl)aniline]
Emax at 10 µM: 102%
EC50: 3.1 nM

Cc1ccc(-c2cncnc2C)c(NCc2c[nH]cn2)c1 [Example 20, N-((1H-imidazol-4-yl)methyl)-5-methyl-2-(4-methylpyrimidin-5-yl)aniline]
Emax at 10 µM: 91%
EC50: 2.4 nM

COc1ccnc(-c2cscc2NCc2c[nH]cn2)c1 [Example 21, N-((1H-imidazol-4-yl)methyl)-4-(4-methoxypyridin-2-yl)thiophen-3-amine]
Emax at 10 µM: 92%
EC50: 0.2 nM

COc1cccc(-c2cscc2NCc2c[nH]cn2)n1 [Example 22, N-((1H-imidazol-4-yl)methyl)-4-(6-methoxypyridin-2-yl)thiophen-3-amine]
Emax at 10 µM: 88%
EC50: 1.2 nM

COc1ncncc1-c1cscc1NCc1c[nH]cn1 [Example 23, N-((1H-imidazol-4-yl)methyl)-4-(4-methoxypyrimidin-5-yl)thiophen-3-amine]
Emax at 10 µM: 95%
EC50: 0.1 nM

Cc1scnc1-c1cscc1NCc1c[nH]cn1 [Example 24, N-((1H-imidazol-4-yl)methyl)-4-(5-methylthiazol-4-yl)thiophen-3-amine]
Emax at 10 µM: 101%
EC50: 0.2 nM

Cc1ncncc1-c1ccc(F)cc1NCc1c[nH]cn1 [Example 25, N-((1H-imidazol-4-yl)methyl)-5-fluoro-2-(4-methylpyrimidin-5-yl)aniline]
Emax at 10 µM: 100%
EC50: 1.7 nM

c1ccc(-c2cnccn2)c(NCc2c[nH]cn2)c1 [Example 26, N-((1H-imidazol-4-yl)methyl)-2-(pyrazin-2-yl)aniline]
Emax at 10 µM: 105%
EC50: 1.2 nM

c1ccc(-c2ccccc2NCc2c[nH]cn2)nc1 [Example 27, N-((1H-imidazol-4-yl)methyl)-2-(pyridin-2-yl)aniline]
Emax at 10 µM: 100%
EC50: 2.3 nM

COc1cccnc1-c1ccccc1NCc1c[nH]cn1 [Example 28, N-((1H-imidazol-4-yl)methyl)-2-(3-methoxypyridin-2-yl)aniline]
Emax at 10 µM: 96%
EC50: 4.9 nM

Fc1cccnc1-c1cscc1NCc1c[nH]cn1 [Example 29, N-((1H-imidazol-4-yl)methyl)-4-(3-fluoropyridin-2-yl)thiophen-3-amine]
Emax at 10 µM: 96%
EC50: 2.3 nM

c1ccc(-c2cscc2NCc2c[nH]cn2)nc1 [Example 30, N-((1H-imidazol-4-yl)methyl)-4-(pyridin-2-yl)thiophen-3-amine]
Emax at 10 µM: 97%
EC50: 0.7 nM

COc1cncc(-c2cscc2NCc2c[nH]cn2)n1 [Example 31, N-((1H-imidazol-4-yl)methyl)-4-(6-methoxypyrazin-2-yl)thiophen-3-amine]
Emax at 10 µM: 103%
EC50: 0.8 nM

COc1cccc(-c2ccccc2NCc2c[nH]cn2)n1 [Example 32, N-((1H-imidazol-4-yl)methyl)-2-(6-methoxypyridin-2-yl)aniline]
Emax at 10 µM: 100%
EC50: 1.1 nM

COc1n[nH]cc1-c1ccc(C)cc1NCc1c[nH]cn1 [Example 33, N-((1H-Imidazol-4-yl)methyl)-2-(3-methoxy-1H-pyrazol-4-yl)-5-methylaniline]
Emax at 10 µM: 97%
EC50: 3.9 nM

COc1n[nH]cc1-c1ccc(F)cc1NCc1c[nH]cn1 [Example 34, N-((1H-imidazol-4-yl)methyl)-5-fluoro-2-(3-methoxy-1H-pyrazol-4-yl)aniline]
Emax at 10 µM: 91%
EC50: 1.3 nM

CC(Nc1ccccc1-c1cccnc1)c1c[nH]cn1 (stereo not shown) [Example 35, N-(1-(1H-Imidazol-4-yl)ethyl)-2-(pyridin-3-yl)aniline]
Emax at 10 µM: 90%
EC50: 5.1 nM

COc1cccc(-c2ccccc2NC(C)c2c[nH]cn2)n1 (stereo not shown) [Example 37, N-(1-(1H-imidazol-4-yl)ethyl)-2-(6-methoxypyridin-2-yl)aniline]
Emax: 109%
EC50: 2.1 nM

CC(Nc1ccccc1-c1cscn1)c1c[nH]cn1 (stereo not shown) [Example 38, N-(1-(1H-imidazol-4-yl)ethyl)-2-(thiazol-4-yl)aniline]
Emax: 107%
EC50: 0.8 nM

c1nc(CNc2cscc2-c2ccoc2)c[nH]1 [Example 41, N-((1H-Imidazol-4-yl)methyl)-4-(furan-3-yl)thiophen-3-amine]
Emax at 10 µM: 92%
EC50: 3.4 nM

c1ncc(-c2cscc2NCc2c[nH]cn2)cn1 [Example 42]
Emax at 10 µM: 97%
EC50: 7.3 nM

COc1ncccc1-c1cscc1NCc1c[nH]cn1 [Example 43]
Emax at 10 µM: 90%
EC50: 0.6 nM

c1ccc(-c2ccsc2)c(OCc2c[nH]cn2)c1 [Example 44, 4-((2-(Thiophen-3-yl)phenoxy)methyl)-1H-imidazole]
Emax at 10 µM: 108%
EC50: 2.2 nM

c1coc(-c2ccccc2OCc2c[nH]cn2)c1 [Example 45]
Emax at 10 µM: 107%
EC50: 9.4 nM

c1csc(-c2ccccc2OCc2c[nH]cn2)c1 [Example 46]
Emax at 10 µM: 104%
EC50: 4.8 nM

c1ccc(-c2cn[nH]c2)c(OCc2c[nH]cn2)c1 [Example 47, 4-(2-((1H-imidazol-4-yl)methoxy)phenyl)-1H-pyrazole]
Emax at 10 µM: 95%
EC50: 9.9 nM

c1cncc(-c2ccccc2OCc2c[nH]cn2)c1 [Example 48]
Emax at 10 µM: 104%
EC50: 3 nM

Cc1n[nH]cc1-c1ccccc1OCc1c[nH]cn1 [Example 49]
Emax at 10 µM: 104%
EC50: 4.3 nM

N#Cc1n[nH]cc1-c1ccccc1OCc1c[nH]cn1 [Example 50]
Emax at 10 µM: 110%
EC50: 0.9 nM

Fc1cncc(-c2ccccc2OCc2c[nH]cn2)c1 [Example 51]
Emax at 10 µM: 102%
EC50: 1.8 nM

COc1ncccc1-c1ccccc1OCc1c[nH]cn1 [Example 52]
Emax at 10 µM: 90%
EC50: 2.7 nM

COc1cncc(-c2ccccc2OCc2c[nH]cn2)c1 [Example 53]
Emax at 10 µM: 93%
EC50: 5.1 nM

COc1ccncc1-c1ccccc1OCc1c[nH]cn1 [Example 54]
Emax at 10 µM: 98%
EC50: 1.6 nM

Cc1ccc(-c2cn[nH]c2)c(OCc2c[nH]cn2)c1 [Example 55]
Emax at 10 µM: 101%
EC50: 0.6 nM

Cc1ccc(-c2c[nH]nc2C#N)c(OCc2c[nH]cn2)c1 [Example 56]
Emax at 10 µM: 105%
EC50: 0.8 nM

Cc1ccc(-c2cnccc2C)c(OCc2c[nH]cn2)c1 [Example 57]
Emax at 10 µM: 96%
EC50: 6.1 nM

Cc1n[nH]cc1-c1ccc(F)cc1OCc1c[nH]cn1 [Example 58]
Emax at 10 µM: 97%
EC50: 1 nM

Cc1ccc(-c2c[nH]nc2C)c(OCc2c[nH]cn2)c1 [Example 59]
Emax at 10 µM: 101%
EC50: 0.4 nM

Reference: US20260132126A1, “IMIDAZOLE DERIVATIVES” (SANWA KAGAKU KENKYUSHO CO., LTD., priority 2022, published 2026)
